Series [1] in a line: Vapour adsorption and vapour desorption (moisture sorption isotherm). Type of series: physicochemical. To be noted: 25° C. On the procedure:
The moisture sorption isotherm was recorded using a Dynamic Vapour Sorption Analyzer IGA Sorp from Hiden Analytical. The measuring temperature was 25° C. There was no sample preparation.

The nature of a further series: Solubility in water. The class given is physicochemical. Conditions: comparison in words. The procedure:
Method: Saturated solutions of the test substance were prepared by stirring a suspension in water at 25° C. for 16 hours. The suspensions obtained were then filtered, and the content in the filtrate was determined by HPLC.

Series [2] deals with recombinant A549 cell line with luciferase reporter under hypoxia-responsible elements. The series can be described thus: Cellular, functional in vitro test (luciferase reporter under hypoxia-responsible elements). Type of series: cell-based. Conditions: Homo sapiens; A549-derived luciferase reporter cell line. An excerpt: The activity of the compounds according to the invention is quantified with the aid of a recombinant cell line. The cell is originally derived from a human lung carcinoma cell line (A549, ATCC: American Type Culture Collection, Manassas, Va. 20108, USA). The test cell line is transfected in a stable manner with a vector which contains the reporter gene of Photinus pyralis luciferase (called luciferase in the following) under the control of an artificial minimal promoter. The minimal promoter comprises two hypoxia-responsible elements upstream of a TATA box [Oehme F., Ellinghaus P., Kolkhof P., Smith T. J., Ramakrishnan S., Hatter J., Schramm M., Flamme I., Biochem. Biophys. Res. Commun. 296 (2), 343-9 (2002)]. Under the effect of hypoxia (e.g. culturing in the presence of 1% oxygen for 24 hours) or under the action of non-selective dioxygenase inhibitors (e.g. desferroxamine in a concentration of 100 μM, cobalt chloride in a concentration of 100 μM or N-oxalylglycine diethyl ester in a concentration of 1 mM), the test cell line produces luciferase, which can be detected and quantified with the aid of suitable bioluminescence reagents (e.g. Steady-Glo® Luciferase Assay System, Promega Corporation, Madison, Wis. 53711, USA) and a suitable luminometer. […]
On the technique in general: A reporter such as luciferase makes a cellular process visible.

Series [3] can be described thus: Water uptake / hygroscopicity at customary environmental conditions. The class given is physicochemical. The procedure: The compound of the formula (I) is hygroscopic and, at customary environmental conditions (20-35° C., atmospheric pressure), takes up up to about 6% by weight of water even at a relative atmospheric humidity above 20% rh. At an atmospheric humidity of 30% rh, the uptake of 6% by weight of water is almost complete. If the atmospheric humidity decreases below 30% rh, the compound of the formula (I) releases part of the water it comprises. This uptake of water or release of water renders handling of the compound of the formula (I), for example weighing operations, and the production of the compound of the formula (I) in a uniform, stable and definined form for use in medicaments or the production of medicaments comprising compound of the formula (I) more difficult. In particular, this increases the technical expenditure during the production of administration forms comprising the compound of the formula (I), such as, for example, tablets, granules or drink solutions, since measures for controlling and regulating atmospheric humidity are required to maintain a uniform concentration of the compound of the formula (I). […]

The values below come from US9533972B2, “Substituted sodium-1H-pyrazole-5-olate” (Bayer Intellectual Property GmbH, priority 2010, dated 2017).

SMILES strings stand for the structures.

Turning to `Oc1c(-n2ccnn2)cnn1-c1cc(N2CCOCC2)ncn1` [Compound of the formula (I), 1-[6-(morpholin-4-yl)pyrimidin-4-yl]-4-(1H-1,2,3-triazol-1-yl)-1H-pyrazol-5-ol, reference compound], the Desorption in series [1] (5% rh) was 0.1% (5% rh).

The EC50 is the concentration giving half of the maximal effect. For the compound `[Na+].[O-]c1c(-n2ccnn2)cnn1-c1cc(N2CCOCC2)ncn1` [Compound of the formula (II), sodium 1-[6-(morpholin-4-yl)pyrimidin-4-yl]-4-(1H-1,2,3-triazol-1-yl)-1H-pyrazol-5-olate], the “solubility in water compared to the compound of the formula (I)” value in “Solubility in water” was “higher solubility in water”. The Adsorption in series [1] (0% rh) and in series [1] (10% rh) was 0% each time. In addition, the Desorption in series [1] (0% rh), in series [1] (10% rh) and in series [1] (20% rh) was 0% each time. Moreover, the EC50 in series [2] amounted to 7 µM. The water comprised result in series [3] is on record as “less than 0.5 % by weight”.
